Assay type in all cases: in vivo
Test [1] relates to Spodoptera frugiperda. In words: Spodoptera frugiperda spray test (maize leaf discs). The following applies: Spodoptera frugiperda, foliar, 168 h, application rate 100 g/ha, after 7 days. The method, then:
[table] To produce a suitable active compound formulation, 1 part by weight of active compound is dissolved using the stated parts by weight of solvent and made up with water containing an emulsifier concentration of 1000 ppm until the desired concentration is attained. To produce further test concentrations, the formulation is diluted with emulsifier-containing water. Leaf discs of maize (Zea mays) are sprayed with an active compound formulation of the desired concentration and, after drying, populated with caterpillars of the fall armyworm (Spodoptera frugiperda). After 7 days, the efficacy in % is determined. 100% means that all the caterpillars have been killed; 0% means that no caterpillar has been killed.

The subject of test [2] is Diabrotica balteata. Briefly: Diabrotica balteata spray test. The following applies: Diabrotica balteata, 168 h, after 7 days; for pest or weed control at 500 g/ha: application rate 500 g/ha (=160 μg/cavity); for pest or weed control at 20 g/ha: application rate 20 g/ha; for pest or weed control at 100 g/ha: application rate 100 g/ha. The method, then:
[table] To produce a suitable active compound formulation, 1 part by weight of active compound is dissolved using the stated parts by weight of solvent and made up with water containing an emulsifier concentration of 1000 ppm until the desired concentration is attained. To produce further test concentrations, the formulation is diluted with emulsifier-containing water. Pre-swollen wheat grains (Triticum aestivum) are incubated in a multiwell plate filled with agar and a little water for one day (5 seed grains per cavity). The germinated wheat grains are sprayed with an active compound formulation of the desired concentration. Subsequently, each cavity is infected with 10-20 beetle larvae of Diabrotica balteata. After 7 days, the efficacy in % is determined. 100% means that all wheat plants have grown as in the untreated, uninfected control; 0% means that no wheat plant has grown.

Test [3] has as its system Nezara viridula. In words: Nezara viridula spray test. The note with it: Nezara viridula, 96 h, application rate 500 g/ha, after 4 days. On the procedure:
[table] To produce a suitable active compound formulation, 1 part by weight of active compound is dissolved using the stated parts by weight of solvent and made up with water containing an emulsifier concentration of 1000 ppm until the desired concentration is attained. To produce further test concentrations, the formulation is diluted with emulsifier-containing water. Barley plants (Hordeum vulgare) are sprayed with an active compound formulation of the desired concentration and are infected with larvae of the Southern green shield bug (Nezara viridula). After 4 days, the efficacy in % is determined. 100% means that all of the shield bugs have been killed; 0% means that none of the shield bugs have been killed.

As to `CCS(=O)(=O)c1ccc(-n2ncn(-c3ccc(F)cc3)c2=O)nc1-c1nc2cc(S(=O)(=O)C(F)(F)Cl)ccc2o1` [Example I-07], the pest or weed control at 100 g/ha in test [1] stood at 100%. Further, the pest or weed control at 31.25 g/ha in test [2] (application rate 31.25 g/ha (=10 μg/cavity), read-out: efficacy) amounted to 100%. The pest or weed control at 125 g/ha in test [2] (application rate 125 g/ha (=40 μg/cavity), read-out: efficacy) is 100%. Also, the pest or weed control at 500 g/ha in test [2] (read-out: efficacy) was found to be 100%.
For `CCS(=O)(=O)c1ccc(-n2ncn(-c3ccc(Cl)cc3)c2=O)nc1-c1nc2cc(S(=O)(=O)C(F)(F)Cl)ccc2o1` [Example I-08], in test [1], the pest or weed control at 100 g/ha came to 100%. In test [2], this compound yielded a pest or weed control at 20 g/ha of 100% and a pest or weed control at 100 g/ha of 80%. The pest or weed control at 500 g/ha in test [2] (read-out: efficacy) amounted to 100%.
For the compound `CCS(=O)(=O)c1ccc(-n2ncn(-c3ccc(Br)cc3)c2=O)nc1-c1nc2cc(S(=O)(=O)C(F)(F)Cl)ccc2o1` [Example I-09], the pest or weed control at 100 g/ha in test [1] was found to be 100%. In test [2], this compound displayed a pest or weed control at 20 g/ha of 80%.
In test [2], `CCS(=O)(=O)c1ccc(-n2ncn(-c3ccc(C#N)cc3)c2=O)nc1-c1nc2cc(S(=O)(=O)C(F)(F)Cl)ccc2o1` [Example I-10] came in with a pest or weed control at 20 g/ha of 80% and a pest or weed control at 100 g/ha of 100%. Further, the pest or weed control at 500 g/ha in test [2] (read-out: efficacy) is 100%.
With `CCS(=O)(=O)c1ccc(-n2ncn(-c3ccc(I)cc3)c2=O)nc1-c1nc2cc(S(=O)(=O)C(F)(F)Cl)ccc2o1` [Example I-11], the pest or weed control at 100 g/ha in test [1] and in test [2] was 100% each time. Besides, the pest or weed control at 500 g/ha in test [2] (read-out: efficacy) turned out to be 100%.
Regarding `CCS(=O)(=O)c1ccc(-n2ncn(-c3ccc(I)cc3)c2=O)nc1-c1nc2cc(S(=O)(=O)C(F)(F)F)ccc2o1` [Example I-12], the pest or weed control at 100 g/ha in test [1] and in test [2] was 100% in each case. For the same compound, in test [2], the pest or weed control at 20 g/ha was 100%. The pest or weed control at 500 g/ha in test [2] (read-out: efficacy) is 100%.
In the case of `CCS(=O)(=O)c1ccc(-n2ncn(-c3cccc(Cl)c3)c2=O)nc1-c1nc2cc(S(=O)(=O)C(F)(F)F)ccc2o1` [Example I-13], in test [1], the pest or weed control at 100 g/ha is 100%. In test [2], this compound displayed a pest or weed control at 20 g/ha of 100% and a pest or weed control at 100 g/ha of 100%. Moreover, the pest or weed control at 500 g/ha in test [2] (read-out: efficacy) stood at 100%.
As for `CCS(=O)(=O)c1ccc(-n2ncn(-c3cccc(Br)c3)c2=O)nc1-c1nc2cc(S(=O)(=O)C(F)(F)F)ccc2o1` [Example I-15], the pest or weed control at 100 g/ha in test [1] and in test [2] was 100% each time. This compound also came in with a pest or weed control at 20 g/ha in test [2] of 100%. The pest or weed control at 500 g/ha in test [2] (read-out: efficacy) turned out to be 100%.
Consider `CCS(=O)(=O)c1ccc(-n2ncn(-c3ccc(C4(C#N)CC4)cc3)c2=O)nc1-c1nc2cc(S(=O)(=O)C(F)(F)F)ccc2o1` [Example I-17], for which, in test [2], the pest or weed control at 20 g/ha was 100% and the pest or weed control at 100 g/ha amounted to 100%. Besides, the pest or weed control at 500 g/ha in test [2] (read-out: efficacy) was 100%.
With `CCS(=O)(=O)c1ccc(-n2ncn(-c3ccc(Cl)c(Br)c3)c2=O)nc1-c1nc2cc(S(=O)(=O)C(F)(F)F)ccc2o1` [Example I-19], the pest or weed control at 100 g/ha in test [1] amounted to 100%. In test [2], the pest or weed control at 20 g/ha came to 100% and the pest or weed control at 100 g/ha was found to be 100%.
As for `CCS(=O)(=O)c1ccc(-n2ncn(-c3ccc(Br)c(Cl)c3)c2=O)nc1-c1nc2cc(S(=O)(=O)C(F)(F)F)ccc2o1` [Example I-20], the pest or weed control at 100 g/ha in test [1] was found to be 100%. For the same compound, in test [2], the pest or weed control at 20 g/ha was determined as 100% and the pest or weed control at 100 g/ha was 100%.
For the compound `CCS(=O)(=O)c1ccc(-n2ncn(-c3ccc(Cl)cc3)c2=O)nc1-c1nc2cc(OC(F)(F)C(F)(F)F)ccc2o1` [Example I-21], the pest or weed control at 100 g/ha in test [1] and in test [2] was 100% each time.
Regarding `CCS(=O)(=O)c1ccc(-n2ncn(-c3ccc(F)cc3)c2=O)nc1-c1nc2cc(OC(F)(F)C(F)(F)F)ccc2o1` [Example I-22], the pest or weed control at 100 g/ha in test [1] and in test [2] was 100% throughout. This compound also yielded a pest or weed control at 20 g/ha in test [2] of 100%.
With `CCS(=O)(=O)c1ccc(-n2ncn(-c3ccc(Br)cc3)c2=O)nc1-c1nc2cc(OC(F)(F)C(F)(F)F)ccc2o1` [Example I-23], the pest or weed control at 100 g/ha in test [1] and in test [2] was 100% in each case.
As to `CCS(=O)(=O)c1ccc(-n2ncn(-c3cccc(F)c3)c2=O)nc1-c1nc2cc(OC(F)(F)C(F)(F)F)ccc2o1` [Example I-24], the pest or weed control at 100 g/ha in test [1] and in test [2] was 100% throughout. The pest or weed control at 20 g/ha in test [2] turned out to be 100%.
With `CCS(=O)(=O)c1ccc(-n2ncn(-c3cccc(Cl)c3)c2=O)nc1-c1nc2cc(OC(F)(F)C(F)(F)F)ccc2o1` [Example I-25], the pest or weed control at 100 g/ha in test [1] and in test [2] was 100% throughout. Further, in test [2], the pest or weed control at 20 g/ha worked out at 100%.
In test [1], `CCS(=O)(=O)c1ccc(-n2ncn(-c3cccc(Br)c3)c2=O)nc1-c1nc2cc(OC(F)(F)C(F)(F)F)ccc2o1` [Example I-26] came in with a pest or weed control at 100 g/ha of 100%. For the same compound, in test [2], the pest or weed control at 20 g/ha is 100% and the pest or weed control at 100 g/ha was 100%.
In test [1], `CCS(=O)(=O)c1ccc(-n2ncn(-c3ccc(C#N)c(Cl)c3)c2=O)nc1-c1nc2cc(S(=O)(=O)C(F)(F)F)ccc2o1` [Example I-28] displayed a pest or weed control at 100 g/ha of 100%. The compound further showed a pest or weed control at 20 g/ha in test [2] of 100%.
With `CCS(=O)(=O)c1ccc(-n2ncn(-c3cccc(C#N)c3)c2=O)nc1-c1nc2cc(OC(F)(F)C(F)(F)F)ccc2o1` [Example I-30], the pest or weed control at 100 g/ha in test [1] and in test [2] was 100% in each case. For the same compound, the pest or weed control at 20 g/ha in test [2] turned out to be 100%.
In turn, `CCS(=O)(=O)c1ccc(-n2ncn(-c3cccc(C4(C#N)CC4)c3)c2=O)nc1-c1nc2cc(OC(F)(F)C(F)(F)F)ccc2o1` [Example I-31] gave a pest or weed control at 100 g/ha in test [1] of 100%. The pest or weed control at 20 g/ha in test [2] turned out to be 100%.
Compound `CCS(=O)(=O)c1ccc(-n2ncn(-c3ccc(F)cc3)c2=O)nc1-c1nc2cc(OC(F)(F)F)ccc2o1` [Example I-33] came in with a pest or weed control at 500 g/ha in test [3] of 100%.
The same measure, in the same setting: next, `CCS(=O)(=O)c1ccc(-n2ncn(-c3ccc(F)cc3)c2=O)nc1-c1nc2cc(C(F)(F)F)ncc2o1` [Example I-35]: 100%; `CCS(=O)(=O)c1ccc(-n2ncn(-c3ccc(F)cc3)c2=O)nc1-c1nc2cc(C(F)(F)F)ccc2o1` [Example I-36]: 100%.
Compound `CCS(=O)(=O)c1ccc(-n2ncn(C3CCCC3)c2=O)nc1-c1nc2cc(C(F)(F)C(F)(F)F)ccc2o1` [Example I-38] gave a pest or weed control at 100 g/ha in test [1] of 100%.
As for `CCS(=O)(=O)c1ccc(-n2ncn(-c3cncc(F)c3)c2=O)nc1-c1nc2cc(S(=O)(=O)C(F)(F)F)ccc2o1` [Example I-40], the pest or weed control at 100 g/ha in test [1] and in test [2] was 100% throughout.
For `CCS(=O)(=O)c1ccc(-n2ncn(-c3ccc(Br)cc3)c2=O)nc1-c1nc2cc(C(F)(F)C(F)(F)F)ccc2o1` [Example I-48], the pest or weed control at 100 g/ha in test [1] and in test [2] was 100% in each case.
Take `CCS(=O)(=O)c1ccc(-n2ncn(C3CC3)c2=O)nc1-c1nc2cc(OC(F)(F)C(F)(F)F)ccc2o1` [Example I-49]: the pest or weed control at 100 g/ha in test [1] was 100%; in test [2], 80%. Moreover, in test [2], the pest or weed control at 20 g/ha is 100%.
As to `CCS(=O)(=O)c1ccc(-n2ncn(C3CC3)c2=O)nc1-c1nc2cc(C(F)(F)C(F)(F)F)ccc2o1` [Example I-50], in test [1], the pest or weed control at 100 g/ha was found to be 100%. In test [2], the pest or weed control at 20 g/ha was found to be 100% and the pest or weed control at 100 g/ha was found to be 100%.
Take `CCS(=O)(=O)c1ccc(-n2ncn(-c3ccc(Cl)cc3)c2=O)cc1-c1nc2cc(Br)ccc2o1` [Example I-53]: the pest or weed control at 100 g/ha in test [1] and in test [2] was 100% each time.
The compound `CCS(=O)(=O)c1ccc(-n2ccn(-c3cccc(C4(C#N)CC4)c3)c2=O)nc1-c1nc2cc(C(F)(F)C(F)(F)F)ccc2o1` [Example I-54] displayed a pest or weed control at 100 g/ha in test [1] of 100%. Also, in test [2], the pest or weed control at 20 g/ha came to 100% and the pest or weed control at 100 g/ha stood at 100%.
On to `CCS(=O)(=O)c1ccc(-n2ncn(-c3ccc(F)cn3)c2=O)nc1-c1nc2cc(S(=O)(=O)C(F)(F)F)ccc2o1` [Example I-55], for which the pest or weed control at 100 g/ha in test [1] and in test [2] was 100% in each case.
